According to patent US12269793B2, “Affinity illudofulvene conjugates” (AF Chemicals, LLC, priority 2019, dated 2025):
Where two headings read alike, the source gives them in different places. Where a SMILES comes first, the peptide text is derived from it. [ ]: non-standard residue; d: D form. The star is where a group is joined. Dolaproine = CO[C@@H]([C@@H]1CCCN1)[C@@H](C)C(=O)O; X4 = CC1=C(C*)C2=C(C)C3(CC3)[C@@](C)(O)C(=O)C2=C1; Dil = CC[C@H](C)[C@H](NC)[C@@H](CC(=O)O)OC; X1 = C[C@@H](N*)[C@@H](O)c1ccccc1; NMeV = CN[C@H](C(=O)O)C(C)C

Columns and labels:
[1] = system: 8392B Nontarget Cell Line (hematopoietic); conditions: read-out: Mean IC50 value, 2 hr exposure, ± SD, N = 3 unless otherwise indicated
NCI 60 cell line panel = test: NCI DTP 60 cell line screen assay; conditions: for Activity Value: NCI 60 cell line screen, negative = lyse tumor cells, zero = no growth, positive = slower growth; for GI50: read-out: Mean GI50 inhibition
Description: An ADC is engulfed by a tumor cell, transported to the endosomes (pH<6.0) and then into the lysozomes (pH<4). […] 4). Cancer cells can become resistant to various toxins and drugs through the development of what is termed multi-drug resistance. This process is known to occur through several different mechanisms.

[2] = system: 8392B Nontarget Cell Line (hematopoietic); conditions: read-out: Mean IC50 value, 48 hr exposure, ± SD, N = 3 unless otherwise indicated
[3] = system: MV522 Target Cell Line (lung-derived adenocarcinoma); test: cells; conditions: MV522, 48 h, read-out: Mean IC50 value
[4] = system: 8392B Nontarget Cell Line (hematopoietic); test: cells; conditions: 48 h, read-out: Mean IC50 value
[5] = system: MV522 Target Cell Line (lung-derived adenocarcinoma); conditions: MV522 target and 8392B nontarget cell line, result in words
[6] = system: MV522 Target Cell Line (lung-derived adenocarcinoma); test: cells; conditions: MV522, 2 h, read-out: Mean IC50 value
[7] = system: 8392B Nontarget Cell Line (hematopoietic); test: cells; conditions: 2 h, read-out: Mean IC50 value, 8392B Nontarget Cell Line, 2 hr exposure, ± SD, N = 3 unless otherwise indicated

## CC1=C(CSc2nc3ccccc3s2)C2=C(C)C3(CC3)[C@@](C)(O)C(=O)C2=C1 [Analog 147]
[1]
  IC50: > 76 µM

## CO[C@@H]1[C@H](O)CC[C@]2(CO2)[C@H]1[C@@]1(C)O[C@@H]1CC=C(C)C [Fumagillol]
NCI 60 cell line panel; NCI DTP 60 cell line, mean
  Mean LD50 cytotoxic: >50,000 nM

## CCCCCCCC/C=C/CCCCCCCC(=O)OCC1=C(C)C=C2C(=O)[C@](C)(O)C3(CC3)C(C)=C21 [Analog 226]
[1]
  IC50: > 59 µM
[2]
  IC50: > 59 µM

## CC(=O)OC[C@]1(C)C=C2C(=O)[C@](C)(O)C3(CC3)C(C)=C2[C@H]1OC(=O)N(C)CCN(C)C(=O)OC(C)(C)C [Analog 334]
NCI 60 cell line panel
  Activity Value: −11
  MDR Activity: Yes

## CC(=O)N[C@@H](CSCC1=C(C)C=C2C(=O)[C@](C)(O)C3(CC3)C(C)=C21)C(=O)N[C@@H](Cc1ccccc1)C(=O)NCC(=O)N[C@H](C=O)CC(C)C [Analog 083] (Ac-C(X4)FGL-aldehyde)
[3]
  IC50: 37.2 ± 2.9 µM
[4]
  IC50: > 42 µM

## CC1=C2C(=CC(C)(CO[Si](C)(C)C(C)(C)C)C2OC(=O)c2ccc(S(=O)(=O)F)cc2)C(=O)C(C)(O)C12CC2 (stereo not shown) [Analog 219]
[1]
  IC50: > 52 µM
[2]
  IC50: > 52 µM

## C/C(=C\c1csc(C)n1)[C@@H]1C[C@@H]2O[C@@H]2CCC[C@H](C)[C@H](O)[C@@H](C)C(=O)C(C)(C)[C@@H](O)CC(=O)O1 [Epothilone A]
NCI 60 cell line panel
  Activity Value: +31

## CC1=C(CSc2nnnn2-c2ccc(O)cc2)C2=C(C)C3(CC3)[C@@](C)(O)C(=O)C2=C1 [Analog 154]
[1]
  IC50: > 70 µM

## CC1=CC2=C(C)C3(CC3)C(C)(O)C(=NO)C2=C1 (stereo not shown) [Analog 224]
[5]
  toxicity as monotherapeutic agent: minimal toxicity
[1]
  IC50: > 200 µM
[2]
  IC50: > 130 µM

## CC1=C(CCC=NN=CCCC2=C(C)C=C3C(=O)[C@@](C)(O)C4(CC4)C(C)=C32)C2=C(C)C3(CC3)[C@@](C)(O)C(=O)C2=C1 [Analog 120]
[6]
  IC50: 2.8 ± 0.9 µM
[3]
  IC50: 0.6 ± 0.1 µM
[7]
  IC50: 19.1 ± 4.6 µM
[4]
  IC50: 0.51 ± 0.11 µM

## CC(=O)N[C@@H](CSCC1=C(C)C=C2C(=O)[C@](C)(O)C3(CC3)C(C)=C21)C(=O)N[C@@H](CC(C)C)C(=O)NCC(=O)N[C@@H](C=O)Cc1ccccc1 [Analog 084] (Ac-C(X4)LG[dF]-aldehyde)
[3]
  IC50: 28.2 ± 1.4 µM
[4]
  IC50: > 42 µM

## CC1=CC2=C(C)C3(CC3)[C@@](C)(O)C(=O)C2=C1 [Analog 001]
[6]
  IC50: 2.2 ± 0.1 µM
[3]
  IC50: 0.35 ± 0.02 µM
[4]
  IC50: 0.83 ± 0.1 µM

## COc1cc2cc(c1Cl)N(C)C(=O)C[C@H](OC(=O)[C@H](C)N(C)C(=O)CCS)[C@]1(C)O[C@H]1[C@H](C)[C@@H]1C[C@@](O)(NC(=O)O1)[C@H](OC)/C=C/C=C(\C)C2 [DM1]
NCI 60 cell line panel
  Activity Value: +8

## CC1=C(CNO)C2=C(C)C3(CC3)[C@@](C)(O)C(=O)C2=C1 [Analog 394]
NCI 60 cell line panel
  Activity Value: −2
  MDR Activity: Yes

## C=C1C[C@H]2C=Nc3cc(OCCCOc4cc5c(cc4OC)C(=O)N4CC(=C)C[C@H]4C=N5)c(OC)cc3C(=O)N2C1 [Pyrrolo-benzodiazepines]
NCI 60 cell line panel; NCI DTP 60 cell line, mean
  Mean LD50 cytotoxic: >23,000 nM

## CC(=O)O[C@@]1(C)C(=O)C2=CC(CO)=CC2=C(C)C12CC2 [Analog 090]
[6]
  IC50: 2.5 ± 0.4 µM
[3]
  IC50: 2.9 ± 0.4 µM
[7]
  IC50: 1.6 ± 0.2 µM
[4]
  IC50: 3.8 ± 0.3 µM

## COC(=O)C1=C(C(=O)OC)C23C=C(C)C1C2=C(C)C1(CC1)[C@@](C)(O)C3=O (stereo partly shown) [Analog 142]
NCI 60 cell line panel
  Activity Value: −5
  MDR Activity: Yes

## CC(=O)O[C@@H]1C2=C(C)C3(CC3)[C@@](C)(O)C(=O)C2=C[C@@]1(C)CO [Analog 371]
NCI 60 cell line panel
  Activity Value: −18
  MDR Activity: Yes

## CC1=C(CSc2nccn2C)C2=C(C)C3(CC3)[C@@](C)(O)C(=O)C2=C1 [Analog 096]
[3]
  IC50: 6.2 ± 0.6 µM
[7]
  IC50: > 88 µM
[4]
  IC50: > 3 µM

## CC(=O)OCCCC1=C(C)C=C2C(=O)[C@](C)(O)C3(CC3)C(C)=C21 [Analog 094]
[6]
  IC50: 0.8 ± 0.1 µM
[7]
  IC50: 9 ± 1.7 µM
[4]
  IC50: 0.11 ± 0.01 µM

## CC[C@H](C)[C@@H]([C@@H](CC(=O)N1CCC[C@H]1[C@H](OC)[C@@H](C)C(=O)N[C@@H](Cc1ccccc1)c1nccs1)OC)N(C)C(=O)[C@@H](NC(=O)[C@H](C(C)C)N(C)C)C(C)C [Dolstatin-10]
NCI 60 cell line panel; NCI DTP 60 cell line, mean
  Mean LD50 cytotoxic: >50,000 nM
  Mean TGI cytostatic: 2,680 nM
  GI50: 0.017 µM

## CC1=C([N+](=O)[O-])C2=C(C)C3(CC3)[C@@](C)(O)C(=O)C2=C1 [Analog 012]
[6]
  IC50: 5.15 ± 1.35 µM
[3]
  IC50: 0.32 ± 0.09 µM
[7]
  IC50: 42.2 ± 5 µM
[4]
  IC50: 18.8 ± 2.8 µM

## COc1cc2cc(c1Cl)N(C)C(=O)C[C@H](OC(=O)[C@H](C)N(C)C(C)=O)[C@]1(C)O[C@H]1[C@H](C)[C@@H]1C[C@@](O)(NC(=O)O1)[C@H](OC)/C=C/C=C(\C)C2 [Maytansine]
NCI 60 cell line panel; 60 cell
  GI50: 0.019 µM
NCI 60 cell line panel; NCI DTP 60 cell line, mean
  Mean LD50 cytotoxic: 49,200 nM

## C=CCCC1=C(C)C=C2C(=O)[C@](C)(O)C3(CC3)C(C)=C21 [Analog 113]
[6]
  IC50: 85 ± 0.7 µM
[3]
  IC50: 14.1 ± 3 µM
[7]
  IC50: > 93 µM
[4]
  IC50: 7.8 ± 1 µM

## CCCCCCCC/C=C/CCCCCCCC(=O)OCCCC1=C(C)C=C2C(=O)[C@](C)(O)C3(CC3)C(C)=C21 [Analog 227]
[1]
  IC50: > 57 µM

## CC[C@H](C)[C@@H]([C@@H](CC(=O)N1CCC[C@H]1[C@H](OC)[C@@H](C)C(=O)N[C@H](C)[C@@H](O)c1ccccc1)OC)N(C)C(=O)[C@@H](NC(=O)[C@@H](NC)C(C)C)C(C)C [MMAE, monomethyl auristatin E] (H-[NMeV]V[Dil][Dolaproine]-X1)
NCI 60 cell line panel
  Activity Value: +21
  MDR Activity: No
NCI 60 cell line panel; listed as MMA
  MDR Activity: not MDR active

## CC(=O)ON(C(C)=O)c1ccc(C(=O)OC[C@]2(C)C=C3C(=O)[C@](C)(O)C4(CC4)C(C)=C3C2OC(=O)c2ccc(N(OC(C)=O)C(C)=O)cc2)cc1 (stereo partly shown) [Analog 140]
[2]
  IC50: > 14 µM

## CC(=O)OCOCC1=C(C)C=C2C(=O)[C@](C)(O)C3(CC3)C(C)=C21 [Analog 008]
[6]
  IC50: 0.87 ± 0.09 µM
[3]
  IC50: 0.63 ± 0.08 µM
[4]
  IC50: 15.1 ± 2.2 µM

## CC1=C(CCC2CO2)C2=C(C)C3(CC3)[C@@](C)(O)C(=O)C2=C1 (stereo partly shown) [Analog 114]
[6]
  IC50: 1.5 ± 0.1 µM
[3]
  IC50: 0.26 ± 0.07 µM
[7]
  IC50: 25.1 ± 1 µM
[4]
  IC50: 0.7 ± 0.1 µM

## CC1=C(CCC(C)O)C2=C(C)C3(CC3)[C@@](C)(O)C(=O)C2=C1 (stereo partly shown) [Analog 128]
[6]
  IC50: 0.84 ± 0.23 µM
[3]
  IC50: 0.37 ± 0.05 µM
[7]
  IC50: > 35 µM
[4]
  IC50: 0.8 ± 0.07 µM

## CC1=C(CO)C2=C(C)C3(CC3)[C@@](C)(O)C(=O)C2=C1 [Analog 002]
NCI 60 cell line panel
  MDR Activity: Yes
NCI 60 cell line panel; ability to actually kill tumor cells versus only inhibiting growth
  Cytotoxicity: Yes

## CC1=C2C(O)C(C)(C)C3CC23C(=O)C(C)(O)C12CC2 (stereo not shown) [Analog 252]
[1]
  IC50: > 380 µM
[2]
  IC50: > 380 µM

## CC1=C2C(=C[C@@](C)(C=O)[C@@H]2O)C(=O)[C@](C)(O)C12CC2 [Analog 383]
NCI 60 cell line panel
  Activity Value: −1
  MDR Activity: Yes

## CC1=C(CSC[C@@H](C)C(=O)N2CCC[C@H]2C(=O)O)C2=C(C)C3(CC3)[C@@](C)(O)C(=O)C2=C1 [Analog 098]
[6]
  IC50: 18.8 ± 2.5 µM
[3]
  IC50: 4.6 ± 0.25 µM
[7]
  IC50: > 65 µM
[4]
  IC50: 11.7 ± 1.8 µM

## CC1=CC2=C(C)C3(CC3)[C@@](C)(O)C(O)C2=C1 (stereo partly shown) [Analog 129]
[6]
  IC50: > 136 µM
[3]
  IC50: 19.7 ± 1.9 µM
[7]
  IC50: > 136 µM
[4]
  IC50: 39.4 ± 9.2 µM
